From patent EP2662079A1 (Ordway Research Institute, Inc., priority 2012, dated 2013)

Assays:
U87MG cells [1] = assay: Clonogenic survival after 250 kVp x-irradiation; type: cell-based, human
Experimental: To irradiate culture flasks, a Philips 250 kVp x-ray machine (Philips Corp., Fall River, MA) operated at 250 kVp and 15 mA with added filtration of a 0.4 mm Thoreaus filter was used. The target to source distance was 30 cm. Dose rates were measured using an R-meter (Victoreen Co., Cleveland, OH), and converted to absorbed (Gy) doses using appropriate temperature, pressure, and R to Gy conversion factors. The dose rate was approximately 1 Gy/min. Flasks were irradiated after being taken from a 37°C environment and moved to the x-ray source. Movement at ambient temperature took approximately 1-2 min. Cells were next placed on ice and allowed to cool for 5 min. Lastly, flasks were placed in the Philips irradiator on top of a 2 mm thickness of Lucite which was on top of a layer of crushed ice. […]
For SHMT analysis, data lying at or below a fractional survival (FxS) value of 0.368 were fit using a linear regression analysis of the log survival data versus linear dose. From this fit the extrapolation number (n), the quasi-threshold dose (Dq, Gy) and the inverse of the inactivation slope (Do, Gy) were derived.
For LQ analyses, survival data lying between the fractional survivals of 1.00 and 0.05 were used. The log survival data were transformed to a linear form using the relationship (- ln FxS/D) and plotted against D. A linear regression analysis was performed to yield the LQ equation along with the 95% confidence limits on the γ-intercept (alpha) and the slope (beta) using a t-table with the appropriate (N-1) degrees of freedom. (See Goldstein A. Biostatistics, Academic Press, 1995.)

MCF7/R cells = assay: Growth of doxorubicin-resistant tumors in nude mice; type: in vivo; conditions: Tetrac 30 mg/kg (Figure 17)
U87MG cells [2] = assay: Colony forming efficiency and flow cytometry; type: cell-based, human; conditions: Tetrac for 1 h at 37°C
Experimental: U87MG cells were seeded at 10^6 cells/100 mm^2 dish and incubated at 37°C for 24 h. Adherent cells were trypsinized and washed once in ambient temperature PBS. Cells were then fixed in 70% ethanol, and stored overnight at 4°C. Cells were prepared for cell cycle analysis by first pelleting the cells (1000 rpm, 7 min, 4°C), and then resuspending the pellet in 1 mL of PBS containing 0.2 mg/mL propidium iodide (Boehringer Mannheim, Indianapolis, IN), with incubation in the dark for 30 min. Cells were then left overnight at 4°C in the dark. Cells were analyzed on a Coulter fluorescence-activated cell sorter (Coulter Electronics, Hialeah, FL). Cells were excited with a single 488 nm argon laser, and the resulting fluorescence was detected using a 585 nm filter. Linear red-orange FL3 data were collected (10,000 events per collection). The distribution of cells within the cell cycle was determined using a Coulter software program.

GL261 cells [3] = assay: Sublethal damage repair (SLDR), split-dose x-rays; type: cell-based, murine
Experimental: SLDR was measured at 10% immediate survival level as determined from the acute single dose curve for both control and Tetrac-treated cells in both growth states (i.e. exponentially growing and plateau phase cells. Flasks were irradiated with one-half of the total dose and returned to the 37°C incubator. At increasing periods of time, flasks were removed, and given the second half of the immediate 10% survival dose. Survival was measured at 0, 0.5, 1.0, 1.5, 2.0, 3.0, 4.0, 6.0, 8.0, and 10.0 hours after the initial dose.
To investigate the effects of Tetrac on SLDR and PLDR, cells were chosen that had been given a one-hour treatment with Tetrac at two different times, i.e., at 70 and 270 hours post-seeding).

h-MTC cells = assay: RNA microarray of MTC cells; type: cell-based, human
Text: Treatment of animals with unmodified or nanoparticulate Tetrac. […] Estimation of tumor response to Tetrac or nanoparticulate Tetrac. […] Statistical analysis for CAM and xenograft studies. […] Statistical significance was defined as P <0.05. RNA microarray analysis.

Matrigel plugs = assay: Mouse Matrigel model of angiogenesis (plug hemoglobin); type: in vivo, mice (C57BL/6NCr)
Experimental: Normal male mice (C57BL/6NCr) 6-8 weeks of age and weighing ~20 g were purchased from Taconic farm. Animals were housed 4 per cage, in controlled conditions of temperature (20-24 °C); humidity (60-70%) and 12 hrs. light/dark cycle provided with food and water ad libitum. […] Matrigel (BD Bioscience, San Jose CA) was thawed overnight at 4 °C and placed on ice. Aliquots of matrigel were placed into cold polypropylene tubes to prevent the matrigel from solidifying and the angiogenesis promoter added to matrigel with or without agonist. Mice were treated daily. Matrigel was subcutaneously injected as triple injection per animal at 100 µL/animal. At day 14 post plug implant all animals were killed in CO2 chamber and matrigel plugs were collected. […]
The matrigel plugs dissected from the mice were carefully stripped of any remaining peritoneum. The plugs were placed into 0.5 mL tube of ddH2O and homogenized for 5-10 min. […] Absorbance was read with a Microplate Manager ELISA reader at 540 nm. […] Hemoglobin concentration is a reflection of the number of blood vessels in the plugs.

GL261 cells [4] = assay: Cell multiplicity after Tetrac exposure; type: cell-based, murine; conditions: after one hour exposure to Tetrac
Experimental: Cell multiplicity (CM) was determined from Giemsa stained slides by counting the number of cells per microcolony under 20 X magnification. At least 400 microcolonies were counted.
The length of time that Tetrac biologically affected GL261 cells was also determined. To do this, the multiplicity relationship defined above was utilized. Tetrac was added to cells one hour prior to the determination of the multiplicity. After the exposure of exponentially growing GL261 cells to Tetrac, the Tetrac containing medium was removed from GL261 cells, which contained an unknown residual and fresh medium (without Tetrac) was added. As a function of time (i.e., 0, 1, 2, 3, 4, 6, 8, and 10 hours, and 1-6 days), the cells, containing an unknown residual amount of remaining Tetrac, were then processed for determination of the multiplicity index (i.e. the number of cells per microcolony).

O=C(O)Cc1cc(I)c(Oc2cc(I)c(O)c(I)c2)c(I)c1 [Tetrac, 3,3',5,5'-tetraiodothyroacetic acid]
increase of α (ratio of the alpha values) (U87MG cells [1]): 3.6 fold
increase of β (U87MG cells [1]): 4.8 fold
median sensitization factor (U87MG cells [1]): 3.6
ratio of relative survival values at 2 Gy (U87MG cells [1]): 4.6
reduction of the DQ value (U87MG cells [1]): 100%
reduction of the Do value (U87MG cells [1]): 31%
α (U87MG cells [1]; LQ, Tetrac treated cells): 0.817 (± 0.091)
β (U87MG cells [1]; LQ, Tetrac treated cells): 0.076 (± 0.006)
DQ (Gy) (U87MG cells [1]; SHMT, Tetrac treated cells): 0.00 ± 0.22 Gy
Do (Gy) (U87MG cells [1]; SHMT, Tetrac treated cells): 1.09 ± 0.36 Gy
relative survival at 2 Gy (U87MG cells [1]; Tetrac treated cells (control 59.6)): 12.8
isoeffect comparison ratio (U87MG cells [1]; at 10% survival): 2.2
average sensitization factor (U87MG cells [1]; average of 3 comparisons, range of 2.2 to 4.6): 3.5
growth of drug resistant tumors in nude mice (MCF7/R cells): effective in suppressing the growth
G1 (U87MG cells [2]; flow cytometry): 58.2 (± 12.2) %
G2/M (U87MG cells [2]; flow cytometry): 24.8 (± 2.8) %
S (U87MG cells [2]; flow cytometry): 15.4 (± 9.1) %
sub-G1 population (U87MG cells [2]; flow cytometry): 1.5 (± 0.2) %
colony forming efficiency (U87MG cells [2]; mean and 95% confidence limits): 26.0 (± 6.1) %
repair of x-ray damage (GL261 cells [3]; Tetrac 2uM, 6 to 8 hours post-irradiation (Figure 58)): no repair of x-ray damage
recovery ratio (GL261 cells [3]; exponential Tetrac treated cells, 2 hours after the first dose): 1.8
factor by which Tetrac reduced SLDR (GL261 cells [3]; exponential cells): 1.8
survival relative to survival seen at 0 hours (GL261 cells [3]; plateau phase cells with Tetrac, 3 hours after the initial dose): approximately 36%
decrease in cellular repair (factor) (GL261 cells [3]; plateau phase cells, three hours post-irradiation): ~3
expression of VEGFA (h-MTC cells): significantly decreased expression
expression of apoptosis-associated genes (CASP2, DFFA, FAF1, CASP8AP2) (h-MTC cells): caused expression
expression of thrombospondin (THBS1) (h-MTC cells): increase
Hemoglobin (mg/mL)± SEM (Matrigel plugs; FGF 100 ng + compound 10 µg/plug, n= 7-14): 0.5 ± 0.1 mg/mL
Mean inhibition of angiogenesis (%) (Matrigel plugs; FGF-induced angiogenesis, 10 µg/plug): 85%
Hemoglobin (mg/mL)± SEM (Matrigel plugs; T4 + antagonist, each 10 µg/matrigcl plug): 0.4 ± 0.1 mg/mL
time for a 50% return of the cell multiplicity factor towards control level (GL261 cells [4]): approximately 2.5 days
time post Tetrac treatment at which decrease in the CM factor was recorded at 50% (GL261 cells [4]): 60 h
